Holding throughout (assay): relative viability (nuclei count vs DMSO), 5 days (fraction); higher = more cells survive
Compound in the test “AZ628 + Crizotinib”: CC1=C(C=C(C=C1)NC(=O)C2=CC(=CC=C2)C(C)(C)C#N)NC3=CC4=C(C=C3)N=CN(C4=O)C [AZ628] + C[C@@H](Oc1cc(-c2cnn(C3CCNCC3)c2)cnc1N)c1c(Cl)ccc(F)c1Cl [Crizotinib] (partner 1 µM)
A digest of the protocol:
(§1)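 Lung cancer cell lines in 1536-well plates got either a single drug or a fixed anchor-drug dose together with five library-drug doses (not always all listed) in √10 steps, by pin tool, on the day after seeding. Nuclei were counted after 5 days, and relative viability is the treated-to-vehicle ratio of nuclei counts. Values are medians of duplicate plates.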

Compound in test [1]: C[As](C)SC[C@H](NC(=O)CC[C@H](N)C(=O)O)C(=O)NCC(=O)O [Darinaparsin] + CCNC(=O)c1noc(-c2cc(C(C)C)c(O)cc2O)c1-c1ccc(CN2CCOCC2)cc1 [Luminespib] (partner 0.01 µM)
Put shortly:
as §1

Compound in test [2]: C[As](C)SC[C@H](NC(=O)CC[C@H](N)C(=O)O)C(=O)NCC(=O)O [Darinaparsin] + C[C@@H](Oc1cc(-c2cnn(C3CCNCC3)c2)cnc1N)c1c(Cl)ccc(F)c1Cl [Crizotinib] (partner 1 µM)
Put shortly:
as §1

Compound in test [3]: C[As](C)SC[C@H](NC(=O)CC[C@H](N)C(=O)O)C(=O)NCC(=O)O [Darinaparsin] + Nc1nc2[nH]cc(CCc3ccc(C(=O)N[C@@H](CCC(=O)O)C(=O)O)cc3)c2c(=O)[nH]1 [Pemetrexed] (partner 0.2 µM)
A digest of the protocol:
as §1

Turning to LOU-NH91, the relative viability in the test with AZ628 + Crizotinib (first compound 0.08 µM) worked out at 0.721; with AZ628 + Crizotinib (first compound 0.253 µM) it was 0.755; with AZ628 + Crizotinib (first compound 0.8 µM), 0.755; with AZ628 + Crizotinib (first compound 2.53 µM) it was 0.731; with AZ628 + Crizotinib (first compound 8 µM), 0.606; in test [1] (first compound 0.08 µM), 0.407. Further, the relative viability in test [1] (first compound 0.8 µM) was 0.31; in test [1] (first compound 2.53 µM), 0.306; in test [1] (first compound 8 µM), 0.345; in test [2] (first compound 0.08 µM) it was 0.779; in test [2] (first compound 0.8 µM), 0.759; in test [2] (first compound 2.53 µM), 0.75. The relative viability turned out to be 0.737 in test [2] (first compound 8 µM); 0.414 in test [3] (first compound 0.08 µM); 0.431 in test [3] (first compound 0.8 µM); 0.314 in test [3] (first compound 2.53 µM); 0.384 in test [3] (first compound 8 µM).

With LU99A, the relative viability in the test with AZ628 + Crizotinib (first compound 0.08 µM) is 0.601; with AZ628 + Crizotinib (first compound 0.253 µM) it was 0.505; with AZ628 + Crizotinib (first compound 0.8 µM) it was 0.586; with AZ628 + Crizotinib (first compound 2.53 µM), 0.566; in the test with AZ628 + Crizotinib (first compound 8 µM), 0.286; in test [1] (first compound 0.08 µM), 0.228. The relative viability came out at 0.24 in test [1] (first compound 0.8 µM); 0.241 in test [1] (first compound 2.53 µM); 0.222 in test [1] (first compound 8 µM); 0.626 in test [2] (first compound 0.08 µM); 0.574 in test [2] (first compound 0.8 µM); 0.461 in test [2] (first compound 2.53 µM). The relative viability in test [2] (first compound 8 µM) turned out to be 0.593; in test [3] (first compound 0.08 µM), 0.19; in test [3] (first compound 0.8 µM), 0.161; in test [3] (first compound 2.53 µM), 0.384; in test [3] (first compound 8 µM) it was 0.194.

Regarding LXF-289, the relative viability worked out at 0.791 with AZ628 + Crizotinib (first compound 0.08 µM); 0.749 in the test with AZ628 + Crizotinib (first compound 0.253 µM); 0.768 in the test with AZ628 + Crizotinib (first compound 0.8 µM); 0.76 in the test with AZ628 + Crizotinib (first compound 2.53 µM); 0.497 with AZ628 + Crizotinib (first compound 8 µM); 0.773 in test [1] (first compound 0.08 µM). Further, the relative viability in test [1] (first compound 0.8 µM) amounted to 0.499; in test [1] (first compound 2.53 µM), 0.578; in test [1] (first compound 8 µM) it was 1.06; in test [2] (first compound 0.08 µM), 0.855; in test [2] (first compound 0.8 µM), 0.814; in test [2] (first compound 2.53 µM) it was 0.682. Besides, the relative viability amounted to 0.906 in test [2] (first compound 8 µM); 0.888 in test [3] (first compound 0.08 µM); 0.962 in test [3] (first compound 0.8 µM); 0.894 in test [3] (first compound 2.53 µM); 0.965 in test [3] (first compound 8 µM).

As to NCI-H522, the relative viability is 1.1 in test [1] (first compound 0.08 µM); 1.22 in test [1] (first compound 0.8 µM); 1.28 in test [1] (first compound 2.53 µM); 1.15 in test [1] (first compound 8 µM); 0.916 in test [3] (first compound 0.08 µM); 1.04 in test [3] (first compound 0.8 µM). For the same cell line, the relative viability in test [3] (first compound 2.53 µM) came to 1.01; in test [3] (first compound 8 µM) it was 1.14.

For NCI-H727, the relative viability with AZ628 + Crizotinib (first compound 0.08 µM) was determined as 0.706; in the test with AZ628 + Crizotinib (first compound 0.253 µM), 0.523; in the test with AZ628 + Crizotinib (first compound 0.8 µM) it was 0.452; in the test with AZ628 + Crizotinib (first compound 2.53 µM), 0.368; with AZ628 + Crizotinib (first compound 8 µM), 0.258; in test [1] (first compound 0.08 µM) it was 0.175. The relative viability came to 0.314 in test [1] (first compound 0.8 µM); 0.285 in test [1] (first compound 2.53 µM); 0.343 in test [1] (first compound 8 µM); 0.713 in test [2] (first compound 0.08 µM); 0.786 in test [2] (first compound 0.8 µM); 0.77 in test [2] (first compound 2.53 µM). Further, in test [2] (first compound 8 µM), the relative viability was determined as 0.988.

NCI-H1299: the relative viability in the test with AZ628 + Crizotinib (first compound 0.08 µM) came out at 1.1; with AZ628 + Crizotinib (first compound 0.253 µM), 1.06; in the test with AZ628 + Crizotinib (first compound 0.8 µM), 1.16; with AZ628 + Crizotinib (first compound 2.53 µM) it was 1.16; with AZ628 + Crizotinib (first compound 8 µM), 0.651; in test [2] (first compound 0.08 µM), 1.09. Further, the relative viability in test [2] (first compound 0.8 µM) was found to be 0.981; in test [2] (first compound 2.53 µM), 0.871; in test [2] (first compound 8 µM), 1.1.

On to NCI-H1395, for which the relative viability in test [1] (first compound 0.08 µM) amounted to 0.681; in test [1] (first compound 0.8 µM) it was 0.708; in test [1] (first compound 2.53 µM) it was 0.553; in test [1] (first compound 8 µM), 0.593; in test [3] (first compound 0.08 µM) it was 0.944; in test [3] (first compound 0.8 µM), 0.719. Further, the relative viability in test [3] (first compound 2.53 µM) was 0.795; in test [3] (first compound 8 µM) it was 0.792.

For the cell line NCI-H1623, the relative viability in test [1] (first compound 0.08 µM) turned out to be 0.538; in test [1] (first compound 0.8 µM), 0.572; in test [1] (first compound 2.53 µM) it was 0.496; in test [1] (first compound 8 µM), 0.43.

NCI-H1648: the relative viability in test [3] (first compound 0.8 µM) is 0.716; in test [3] (first compound 8 µM) it was 0.683.

NCI-H1703: the relative viability was 0.538 with AZ628 + Crizotinib (first compound 0.08 µM); 0.672 with AZ628 + Crizotinib (first compound 0.253 µM); 0.405 with AZ628 + Crizotinib (first compound 0.8 µM); 0.204 with AZ628 + Crizotinib (first compound 2.53 µM); 0.192 with AZ628 + Crizotinib (first compound 8 µM); 1.45 in test [2] (first compound 0.08 µM). Moreover, the relative viability in test [2] (first compound 0.8 µM) was determined as 0.859; in test [2] (first compound 2.53 µM) it was 0.483; in test [2] (first compound 8 µM), 0.607.

As to NCI-H1793, the relative viability stood at 0.238 in test [1] (first compound 0.08 µM); 0.162 in test [1] (first compound 0.8 µM); 0.161 in test [1] (first compound 2.53 µM); 0.175 in test [1] (first compound 8 µM); 1.01 in test [3] (first compound 0.08 µM); 0.89 in test [3] (first compound 0.8 µM). In addition, in test [3] (first compound 8 µM), the relative viability was determined as 1.05.

On to NCI-H2342, for which the relative viability in test [1] (first compound 0.08 µM) came out at 0.773; in test [1] (first compound 0.8 µM), 0.8; in test [1] (first compound 2.53 µM) it was 0.813; in test [1] (first compound 8 µM), 0.826; in test [3] (first compound 0.08 µM), 0.785; in test [3] (first compound 0.8 µM), 0.782. Moreover, the relative viability in test [3] (first compound 2.53 µM) worked out at 0.743; in test [3] (first compound 8 µM) it was 0.841.

Turning to SW 900, the relative viability in test [1] (first compound 0.08 µM) turned out to be 0.169; in test [1] (first compound 0.8 µM), 0.169; in test [1] (first compound 2.53 µM), 0.17; in test [1] (first compound 8 µM) it was 0.166; in test [3] (first compound 0.08 µM), 0.402; in test [3] (first compound 2.53 µM) it was 0.481. For the same cell line, the relative viability in test [3] (first compound 8 µM) stood at 0.517.

The values above are taken from the supplement of paper PMC10307832.
